Reference: patent publication US12336554B2, “Cannabinoid acid beverage” (CHEMTOR, LP, priority 2020, dated 2025)

Assay: Dissolution of THCA crystalline powder in distilled water at different pH
Format: physicochemical
Procedure: 50 mgs of high purity (>99% by weight) THCA crystalline powder was added to 250 ml of distilled water at a pH of 6.5.
The distilled water and THCA from Comparative Example 1 was brought to a pH of 9.5 through the addition of a base and warmed to 40° C.

## CCCCCc1cc2c(c(O)c1C(=O)O)[C@@H]1C=C(C)CC[C@H]1C(C)(C)O2 [THCA, tetrahydrocannabinolic acid]
50 mgs in 250 ml distilled water, pH 6.5, heated to 100° C.
  Dissolution in distilled water after heating: still did not dissolve
50 mgs in 250 ml distilled water, pH 6.5, immediately and after stirring
  Dissolution in distilled water: did not immediately dissolve, not did it dissolve after stirring
50 mgs in 250 ml water, pH 9.5 by addition of a base, warmed to 40° C.
  Dissolution in alkaline water: dissolved into solution and produced a clear aqueous solution
pH 9.5 solution cooled to room temperature
  Solution stability after cooling: the solution remained clear
